The structures appear in SMILES notation.

This series can be described thus: gradient 5% acetonitrile 3 min, to 50% in 2 min, to 85% in 15 min, held 3 min, 100 µL/min. The following applies: column: Zorbax Extend-C18 2.1 x 50 mm; eluents: water / acetonitrile, 0.1% formic acid. The essentials: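 Standards, all pure, were combined into mixtures of ~100 molecules and run at 100 μL/min on a Zorbax Extend-C18 column (2.1 × 50 mm, 1.8 μm) with water and acetonitrile, each containing 0.1% formic acid. A coupled quadrupole time-of-flight mass spectrometer operated in positive and negative ionization mode. Retention time values come from computationally picked adduct peaks, each inspected manually.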
In turn, `CCOc1cc(-c2nc(C3CC(=O)N(c4ccc(OC)c(OC)c4)C3)no2)cc(OCC)c1OCC` (centres undefined) yielded an RP-LC retention time of 1060 s.
The value for `Cc1sc(-c2cc(C(F)(F)F)on2)cc1S(=O)(=O)Nc1ccccc1F` was 1110 s.
For `Brc1cccc(-c2noc(Cn3ccnc3)n2)c1`, the RP-LC retention time came to 650 s.
`CCc1ccccc1NC(=O)C1CCN(S(C)(=O)=O)c2cc(Cl)ccc2O1` (centres undefined): the RP-LC retention time is 944 s.
The value for `COc1cc(Cl)ccc1-c1nc(-c2ccc3oc(C)nc3c2)no1` was 1140 s; that for `COc1cc(OC)cc(C(=O)Nc2nc(-c3ccc4c(c3)NC(=O)C(C)O4)c(C)s2)c1` (centres undefined) was 962 s; that for `CNC(=O)CCc1nc2ccccc2n(CC(=O)NCc2ccccc2Br)c1=O` was 700 s.
On to `Cc1cc(S(=O)(=O)N2CCC(n3cnnc3C)CC2)ccc1Cl`, for which the RP-LC retention time came to 739 s.
The value for `O=C(CCC1CCN(S(=O)(=O)c2ccccc2)CC1)N1CCCCC1` was 894 s; that for `Cc1ccc(CN2CCC3(CC2)CC(CC(=O)N2CCOCC2)CCO3)s1` (centres undefined) was 595 s.
The molecule `Cc1ccc2[nH]cc(CCN3CC(C(=O)Nc4ccc5c(c4)CCC5)CC3=O)c2c1` (centres undefined) had an RP-LC retention time of 925 s.
For `Cc1ccc(C)c(N2CCN(Cc3nc(-c4ccc(N5CCOCC5)nc4)no3)CC2)c1`, the RP-LC retention time came to 949 s.
In turn, `CC(Cc1ccco1)NC(=O)C1CCN(Cc2cn(C)c3ccc(Cl)cc23)CC1` (centres undefined) registered an RP-LC retention time of 707 s.
`CC(C)Cn1c(=O)c(N2CCN(S(=O)(=O)c3cccc(F)c3)CC2)nc2ccncc21` came in with an RP-LC retention time of 636 s.
`O=C(NCc1noc(Cc2ccccc2)n1)c1ccccc1`: the RP-LC retention time came to 798 s.
`O=C(NCc1ccc(F)cc1F)c1ccc(OCC(=O)C2CC2)cc1` registered an RP-LC retention time of 784 s.
In the case of `COc1ccc(NC(=O)C2CCN(S(=O)(=O)c3cc(-c4noc(C)n4)cs3)CC2)cc1` it was 871 s; in that of `CCOc1ccc2nc(NC(=O)c3cc(=O)c(OCc4ccccc4)cn3C)sc2c1`, 741 s.
`O=C(c1ccccc1[N+](=O)[O-])N1CCN(Cc2nc(-c3ccco3)cs2)CC1` came in with an RP-LC retention time of 682 s.
The molecule `CCN1CCN(C(=O)c2c(OCC3CC3)cc(=O)n3c2CCCCC3)CC1` displayed an RP-LC retention time of 569 s.
On to `CCn1c(C)nc2c1CN(CC(=O)NCCCN1CCCc3ccccc31)CC2`, for which the RP-LC retention time was 594 s.
`Cc1ccc(-c2noc(Cn3cnc4c(cnn4-c4ccc(C)c(Cl)c4)c3=O)n2)cc1` displayed an RP-LC retention time of 1270 s.
`CC(C)CCNS(=O)(=O)c1ccccc1-c1nc(-c2ccccc2)no1` had an RP-LC retention time of 1240 s.
On to `O=C([C@@H]1C[C@H](F)CN1C(=O)Nc1ccc(Cl)cc1)N1CCCCC1`, for which the RP-LC retention time is 732 s.
`Cc1cc(C)cc(-c2nnc3ccc(Cl)nn23)c1` returned an RP-LC retention time of 859 s.
In the case of `CCc1cccc(-n2nnc(C(=O)O)c2CC)c1`, the RP-LC retention time is 788 s.
In the case of `CCOc1ccc(-n2c(N3CCSCC3)nc3cc(C(=O)OC)ccc3c2=O)cc1` it was 800 s; in that of `COCc1noc([C@@H]2CC(F)(F)CN2C(=O)c2conc2C)n1`, 679 s.
`O=C(NCCCN1CCC(N2CCCCC2)CC1)c1ccc2c(c1)NC(=O)C1CCCCN21` (centres undefined): the RP-LC retention time is 537 s.
Turning to `O=c1c2nnc3c(-c4ccc(F)cc4)cnn3c2ccn1CCc1c[nH]c2ccc(F)cc12`, the RP-LC retention time stood at 950 s.
As to `O=C(C1CCCO1)N1CCN(c2nc3cccnc3n(Cc3ccccc3)c2=O)CC1` (centres undefined), the RP-LC retention time was found to be 856 s.
In turn, `O=C(Nc1nc(CC(=O)N2CCn3c2nc2ccccc23)cs1)c1ccsc1` returned an RP-LC retention time of 657 s.
In the case of `CCc1nnc(-c2cc(C)n(CC(=O)Nc3ccc(Cl)cc3C)c2C)o1` it was 915 s; in that of `O=C(c1ccsc1)N1CCCC1c1nc(CCOCC2CCCC2)no1` (centres undefined), 980 s; in that of `COCc1nncn1C1CCN(S(=O)(=O)c2ccc(C)cc2C)CC1`, 743 s.
In the case of `Clc1cccc(Nc2nnc(-c3ccccc3)c3ccccc23)c1` it was 790 s.
`CC(C)NC(=O)c1ccc2c(c1)CCN2C(=O)C1CC1` had an RP-LC retention time of 808 s.
In the case of `CCc1cc(C(=O)N2CCN(CC(C)C)CC2)nc2cc(-c3ccco3)nn12`, the RP-LC retention time was 734 s.
In the case of `O=C(CN1C(=O)C2CCCCN2c2ccc(C(=O)N3CCCC3)cc21)NC1CCCCC1` (centres undefined), the RP-LC retention time was determined as 814 s.
Molecule `CC1Cc2ccccc2N1C(=O)c1ccc(=O)n(CCC(=O)NC2CCCCC2)n1` (centres undefined) returned an RP-LC retention time of 793 s.
Regarding `O=C(c1ccc(F)cc1)N1CCCN(c2nnc3ccc(Cl)cn23)CC1`, the RP-LC retention time came out at 689 s.
Regarding `CC1Oc2ccc(-c3csc(NC(=O)C4CCCCC4)n3)cc2NC1=O` (centres undefined), the RP-LC retention time is 922 s.
Molecule `O=C(CSc1nnc(CNC(=O)c2cccc(C(F)(F)F)c2)o1)NCC1CCCO1` (centres undefined) showed an RP-LC retention time of 664 s.
The value for `Cc1ccc(S(=O)(=O)NCc2ccccc2)cc1` was 908 s; that for `CCN(CC)S(=O)(=O)N1CCC(C(=O)NCCc2ccccc2)CC1` was 817 s; that for `Cc1nc2ccc(NC(=O)Cc3ccc4c(c3)OCO4)cc2s1` was 716 s.
Turning to `O=C(Nc1cccc(F)c1)C1CCN(C(=O)c2ncn3c2COC(c2ccc(F)cc2)C3)CC1` (centres undefined), the RP-LC retention time was determined as 832 s.
Molecule `CCc1ccc(NC(=O)N2C[C@@H](F)C[C@H]2C(=O)N2CCCCC2)cc1` returned an RP-LC retention time of 728 s.
In turn, `O=C(Nc1cccc(C(F)(F)F)c1)N(Cc1ccsc1)C1CC1` had an RP-LC retention time of 1030 s.
The molecule `CCCc1noc(-c2ccc3nnc(CC(=O)Nc4ccc(C)cc4F)n3c2)n1` had an RP-LC retention time of 940 s.
With `CSCc1csc(NC(=O)c2ccc(F)c(F)c2)n1`, the RP-LC retention time amounted to 857 s.
The molecule `CCOCC(=O)N1CCC(c2nc(CNC(=O)C3CCC3)cs2)CC1` displayed an RP-LC retention time of 623 s.
`O=C(c1cc(Br)ccc1Cl)N1CCN(c2ccc(-n3ccnc3)nn2)CC1`: the RP-LC retention time is 575 s.
`Cc1ccc(NC(=O)CN2CCC(C(=O)NCc3c(F)cccc3F)CC2)c(C)c1` had an RP-LC retention time of 585 s.
In the case of `CCc1ccc(NC(=O)CN2C(=O)CCCc3cc(S(=O)(=O)N4CCCC4)ccc32)cc1`, the RP-LC retention time came out at 918 s.
Turning to `COc1cccc(-c2noc(CN3C(=O)COc4ccc(Cl)cc43)n2)c1OC`, the RP-LC retention time is 1020 s.
As for `COc1cc(CN2C[C@@H]3C(=O)N(CCc4ccccc4)C(=O)[C@@H]3C2)cc(OC)c1`, the RP-LC retention time came out at 753 s.
`COC(=O)C1=CN(c2ccc(F)cc2C)c2ccc(F)cc2S1(=O)=O` showed an RP-LC retention time of 920 s.
In turn, `COc1ccc(NC(=O)Cn2nc(N3CCOCC3)c3ccccc3c2=O)cc1` had an RP-LC retention time of 730 s.
The value for `O=c1c2cc(-c3ccccc3)nn2ccn1Cc1noc(CN2CCCCC2)n1` was 651 s.
Take `CCc1nnc(-c2nnc(NCCOc3ccccc3OC)c3ccccc23)o1`: the RP-LC retention time was determined as 790 s.
In the case of `CC(C)(Oc1ccc(Cl)cc1)C(=O)N1CCN(CC(O)c2cccs2)CC1` (centres undefined), the RP-LC retention time stood at 603 s.
As to `Cc1nc(-c2ccc3c(c2)n(CC(=O)N2c4ccccc4CC2C)c(=O)n3C(C)C)no1` (centres undefined), the RP-LC retention time amounted to 989 s.
In the case of `Cc1noc(C)c1Cc1ccc(C(=O)N2CCCCCCNC(=O)[C@@H]3CCCC[C@@H]32)o1`, the RP-LC retention time came to 839 s.
Take `O=C(NCCc1csc(-c2ccccc2)n1)C1CCN(S(=O)(=O)c2ccc(F)cc2)CC1`: the RP-LC retention time was 928 s.
`COc1ccc(S(=O)(=O)N2C[C@H](F)C[C@@H]2C(=O)N2CCOCC2)cc1Cl` yielded an RP-LC retention time of 721 s.
With `CC(C)CN1CCn2cc(S(=O)(=O)NCc3cccc(F)c3)cc2C1=O`, the RP-LC retention time was determined as 813 s.
The value for `CCOC(=O)CNC(=O)NCc1cccn1Cc1ccccc1` was 793 s.
`CSc1nnc(-c2nn(C)c3c2CN(C(=O)c2c(F)cccc2F)CC3)n1C` displayed an RP-LC retention time of 695 s.
Turning to `CCOC(=O)C1CCN(Cc2nc3nc(C)cc(N4CCOCC4)n3n2)CC1`, the RP-LC retention time was found to be 576 s.
The molecule `CC1=C(c2ccccc2)S(=O)(=O)N=C1N1CCCN(C(=O)C2CCCO2)CC1` (centres undefined) had an RP-LC retention time of 702 s.
The value for `O=c1ccc(-c2ccc3c(c2)OCO3)nn1CCc1nc(-c2ccc(F)cc2)no1` was 927 s; that for `COc1ccc(NC(=O)NC(C)C(=O)N2CCc3ccccc32)c(OC)c1` (centres undefined) was 859 s; that for `CCS(=O)(=O)Nc1ccc(-c2noc(CNS(=O)(=O)c3ccccc3)n2)cc1` was 720 s.
On to `COC(=O)c1ccc(OC)c(Cn2cnc3c(-c4ccc(C)cc4)csc3c2=O)c1`, for which the RP-LC retention time was found to be 1070 s.
In turn, `O=C(NCCN1CCCCCC1)c1ccc2c(c1)NC(=O)C1CCCCN21` (centres undefined) came in with an RP-LC retention time of 601 s.
The value for `COc1cccc(OC)c1C(=O)Nc1nnc(SCc2nnc(-c3ccccc3)o2)s1` was 832 s; that for `O=C(OCc1nc2ccccc2s1)c1ccc([N+](=O)[O-])s1` was 970 s.
Regarding `CC(C)(C)n1nnnc1C1CC2(CCOCC2)C(=O)N1Cc1cccc(F)c1` (centres undefined), the RP-LC retention time stood at 784 s.

Source of the values: the METLIN SMRT retention time set (Domingo-Almenara et al. 2019).
